Measurements from US9216183B2, “Topical treatment for chemotherapy induced eyelash loss or hypotrichosis using prostamide F2 alpha agonists” (ALLERGAN, INC., priority 2002, dated 2015).
Values joined by “and” are separate entries in the source; they are usually repeats but may differ in a detail not shown here. Equal values may be shown once.

System: eyelashes of subjects with idiopathic hypotrichosis
Assay: GEA / ESQ Domain 2 responder analysis, 1-year clinical study, idiopathic hypotrichosis
Type: in vivo, human
Excerpt: A one-year, multicenter, randomized, double-masked, vehicle-controlled study. Adult post-chemotherapy and idiopathic eyelash hypotrichosis subjects were enrolled based on their score of 1 or 2 on a four point ordinal Global Eyelash Assessment (GEA) scale, and in addition having a low score on a PRO measure associated with 'psychological impact' of the condition, a domain-2 of the Eyelash Satisfaction Questionnaire (ESQ). The study involved two treatment periods of six months each. In the first treatment period, subjects for both populations were randomized 3:1 for QD bimatoprost: vehicle treatment. In the second 6-month treatment period, all subjects were moved to bimatoprost treatment, except for a group of bimatoprost treated idiopathic hypotrichosis subjects (n=55) who were switched to vehicle to investigate the effect of drug discontinuation. The study included 9 visits over the 12-month treatment period. The primary end point was the proportion of responders within each treatment group based on a composite measure of GEA and ESQ Domain-2 (investigator assessed eyelash prominence and subject's assessment of 'psychological impact' related to eyelashes) at month-4. This multicenter, double-masked, randomized, parallel-group study included two 6-month treatment periods. Subjects with idiopathic hypotrichosis were randomized to 3 treatment groups: 1) treatment period 1 (TP1) and TP2: bimatoprost; 2) TP1: bimatoprost; TP2: vehicle; and 3) TP1: vehicle; TP2: bimatoprost. Subjects with chemotherapy-induced hypotrichosis were randomized to 2 treatment groups: 1) TP1: bimatoprost or vehicle; and 2) TP2: bimatoprost. The primary endpoint was a composite of at least a 1-grade improvement in investigator-assessed Global Eyelash Assessment (GEA), and at least a 3-point improvement in subject-reported Eyelash Satisfaction Questionnaire (ESQ) Domain 2 (self-perceived confidence, attractiveness, and professionalism) at month 4. Secondary measures included digitally assessed eyelash characteristics (i.e., eyelash length, fullness, and darkness). Idiopathic hypotrichosis subjects were randomized to 3 treatment arms in a 2:1:1 ratio: bimatoprost during both treatment periods; vehicle in TP1 and bimatoprost in TP2; and bimatoprost in TP1 and vehicle in TP2. Chemotherapy-induced hypotrichosis subjects were randomized in a 3:1 ratio to receive bimatoprost during both treatment periods or vehicle in TP1 followed by bimatoprost in TP2. Male or female subjects at least 18 years of age who met these criteria were eligible for inclusion in the study: a score of 1 or 2 on the clinician-graded global eyelash assessment (“GEA”); a score of 1 (very much disagree) or 2 (disagree) on each of 3 items (16 [confidence], 19 [attractiveness], and 18 [professionalism]) on the subject-assessed eyelash satisfaction questionnaire (“esq”); best-corrected visual acuity (“bcva”) score equivalent to a […] acuity of 20/100 or better in each eye; and intraocular pressure (“iop”) 20 mm hg or less in each eye. Subjects in the chemotherapy-induced hypotrichosis population also met the following inclusion criteria: inadequate eyelashes after completing chemotherapy; treatment for solid tumor type stage 1, 2, or 3a cancer; last chemotherapy treatment at least 4 to less than 16 weeks prior to baseline; and considered free of cancer. Key exclusion criteria included subjects with any eye disease or abnormality or a history of eye surgery. Subjects placed 1 drop of study treatment (i.e., bimatoprost 0.03% or vehicle) onto a sterile single-use-per eye applicator and applied it to the upper eyelid margin of 1 eye; a second applicator was used for the contralateral eye. Treatment was applied once daily in the evening throughout the study. […]

[1] = Bim/Veh group (n = 60), Month 1 (on bimatoprost)
[2] = Bim/Veh group (n = 60), Month 2 (on bimatoprost)
[3] = Bim/Veh group (n = 60), Month 4 (on bimatoprost)
[4] = Bim/Veh group (n = 60), Month 6 (on bimatoprost)
[5] = Bim/Veh group (n = 60), Month 7 (vehicle since month 6)
[6] = Bim/Veh group (n = 60), Month 8 (vehicle since month 6)
[7] = Bim/Veh group (n = 60), Month 10 (vehicle since month 6)
[8] = Bim/Veh group (n = 60), Month 12 (vehicle since month 6)
[9] = Month 4, all bimatoprost TP1 (n = 179)
[10] = Month 6, all bimatoprost TP1 (n = 179)

Structure (SMILES): CCNC(=O)CCC/C=C\C[C@@H]1[C@@H](/C=C/[C@@H](O)CCc2ccccc2)[C@H](O)C[C@@H]1O [Bim 0.03%, bimatoprost]
- Primary composite endpoint responders (≧1-grade GEA and ≧3-point ESQ Domain 2 improvement) [1]: 0.0%
- ≧1-Grade Improvement From Baseline GEA Score [1]: 10.0%
- ≧2-Grade Improvement From Baseline GEA Score [1]: 0.0%
- ≧3-Point Improvement From Baseline ESQ Domain 2 Score [1]: 13.3%
- Primary composite endpoint responders (≧1-grade GEA and ≧3-point ESQ Domain 2 improvement) [2]: 13.3%
- ≧1-Grade Improvement From Baseline GEA Score [2]: 40.0%
- ≧2-Grade Improvement From Baseline GEA Score [2]: 3.3%
- ≧3-Point Improvement From Baseline ESQ Domain 2 Score [2]: 25.0%
- Primary composite endpoint responders (≧1-grade GEA and ≧3-point ESQ Domain 2 improvement) [3]: 41.7%
- ≧1-Grade Improvement From Baseline GEA Score [3]: 71.7%
- ≧2-Grade Improvement From Baseline GEA Score [3]: 25.0%
- ≧3-Point Improvement From Baseline ESQ Domain 2 Score [3]: 48.3%
- Primary composite endpoint responders (≧1-grade GEA and ≧3-point ESQ Domain 2 improvement) [4]: 48.3%
- ≧1-Grade Improvement From Baseline GEA Score [4]: 76.7%
- ≧2-Grade Improvement From Baseline GEA Score [4]: 30.0%
- ≧3-Point Improvement From Baseline ESQ Domain 2 Score [4]: 56.7%
- Primary composite endpoint responders (≧1-grade GEA and ≧3-point ESQ Domain 2 improvement) [5]: 51.7%
- ≧1-Grade Improvement From Baseline GEA Score [5]: 78.3%
- ≧2-Grade Improvement From Baseline GEA Score [5]: 30.0%
- ≧3-Point Improvement From Baseline ESQ Domain 2 Score [5]: 56.7%
- Primary composite endpoint responders (≧1-grade GEA and ≧3-point ESQ Domain 2 improvement) [6]: 50.0%
- ≧1-Grade Improvement From Baseline GEA Score [6]: 78.3%
- ≧2-Grade Improvement From Baseline GEA Score [6]: 28.3%
- ≧3-Point Improvement From Baseline ESQ Domain 2 Score [6]: 55.0%
- Primary composite endpoint responders (≧1-grade GEA and ≧3-point ESQ Domain 2 improvement) [7]: 20.0%
- ≧1-Grade Improvement From Baseline GEA Score [7]: 46.7%
- ≧2-Grade Improvement From Baseline GEA Score [7]: 8.3%
- ≧3-Point Improvement From Baseline ESQ Domain 2 Score [7]: 43.3%
- Primary composite endpoint responders (≧1-grade GEA and ≧3-point ESQ Domain 2 improvement) [8]: 11.7%
- ≧1-Grade Improvement From Baseline GEA Score [8]: 35.0%
- ≧2-Grade Improvement From Baseline GEA Score [8]: 5.0%
- ≧3-Point Improvement From Baseline ESQ Domain 2 Score [8]: 38.3%
- Primary composite endpoint responders (≧1-grade GEA and ≧3-point ESQ Domain 2 improvement) [9]: 40.2%
- Responders with ≧1-grade increase in GEA score [9]: 74.3%
- Responders with ≧2-grade increase in GEA score [9]: 25.7%
- Responders with ≧3-point increase in ESQ Domain 2 [9]: 47.5%
- Responders with ≧1-grade increase in GEA score (Month 4, all bimatoprost TP1 (n = 179), listed as Bimatoprost): 74.3%
- Responders with ≧1-grade increase in GEA score (Month 4, all bimatoprost TP1 (n = 179), listed as bimatoprost): 74.3% and > 70%
- Primary composite endpoint responders (≧1-grade GEA and ≧3-point ESQ Domain 2 improvement) [10]: 47.5%
- Responders with ≧1-grade increase in GEA score [10]: 77.7%
- Responders with ≧2-grade increase in GEA score [10]: 30.7%
- Responders with ≧3-point increase in ESQ Domain 2 [10]: 55.9%
- Time efficacy was maintained after drug discontinuation (bimatoprost 6 months then vehicle): about 2 months
